# Experimental data taken from patent publication US5002963A, “3-indolepyruvic acid derivatives and pharmaceutical use thereof” (priority 1987, dated 1991).
# Where a name gives a salt, the structure may show the parent alone.
# Experiments:
# NMDA induced convulsions = test: Test 7: NMDA induced convulsions; format: in vivo, Mice of Albino Swiss strain
# Method: Mice of Albino Swiss strain were treated with saline (controls) or with IPA (1 g/Kg i.p.) one hour before receiving a toxic dose of NMDA (154 mg/Kg i.p.).
# [1] = test system: audiogenic convulsions in DBA2 mice; test: Test 6: audiogenic convulsions in DBA2 mice; format: in vivo; details: for Animals with convulsions, % / Animals with convulsions: one hour before the test; for Animals with convulsions: number/total
# Method: To evaluate whether an increase in kynurenic acid in the brain after administration of IPA could have a protective action on neurons stressed by excitatory aminoacids, the experimental pattern of inducing convulsions in a particular strain of mice (DBA2) by selected sound stimulations was followed. […] The substances were injected intravenously one hour before the test. Then the number of animals showing tonic convulsions was measured.
# [2] = Test 1: transformation of 3-indolepyruvic acid into kynurenic acid in vitro, within a non enzymatic system; format: physicochemical; details: from 2 mg, HCl 0,1 M, O2 and light
# Method: When 3-indole pyruvic acid or a derivative thereof of formula 1 is incubated in a slightly acid solution (HCl 0,1 M), in the presence of oxidising agents (O2) and light, in time the formation of small amounts of kynurenic acid is observed. Particularly starting from 2 mg 3-indolepyruvic acid, 0,5 micrograms are obtained after 2 hours and 0,7 micrograms after 4 hours.
# kynurenic acid [3] = test: Test 5: time course of the kynurenic acid levels after administration of IPA; format: in vivo, rats; details: 250 mg/Kg i.p.; for kynurenic acid level, Brain / kynurenic acid level, Heart / kynurenic acid level, Kidney / kynurenic acid level, Liver: ± standard error
# Excerpt: (§1) For the measurement of such levels after administration of 3-indolepyruvic acid or a derivative thereof, a system was set up based on ultraviolet detection of the compounds separated by high pressure liquid chromatography.
# (§2) Briefly, after sacrific of the animal, some of the principal organs were taken and homogenized with alkaline ethanol. Proteins and cell remains were removed by centrifugation, whilst the over natant was adsorbed on Bio-Rad AG 1×8 resin. After washing with water it was eluted with formic acid. It was then passed on Bio-Rad AG 50W-×8 resin, eluted with 3% ammonia, dried and retaken with a small amount of water.
# (§3) The sample thus obtained was injected into a Waters apparatus for high pressure liquid chromatography, using a C18 10 micron column and eluting with 0,02 m citric acid containing 10% of methanol. The kynurenic acid levels were extrapolated by the calibration line of the acid and reading at 234 nm.
# Male rats, in lots of five animals each, were treated i.p. with 250 mg/Kg IPA and were sacrificed at different times, evaluating the levels of kynurenic acid present in various organs.
# The results are reported in picomoles/g±standard error.
# kynurenic acid [4] = test: Test 3: effect on the content of kynurenic acid after administration of IPA in rat; format: in vivo; details: 3 hours, ± standard error
# Stability = format: physicochemical
# Kidney homogenate = test: Test 2: transformation into kynurenic acid in tissue homogenates (kidney); format: in vitro ADME, rats
# Method: (§4) Male rats fasting for 16 hours were sacrificed and their organs were taken and homogenized in 5 volumes of 0,05 M phosphate buffer pH 7,4+0,14 M KCl.
# (§5) Small amounts of homogenate (0,8 ml) were additioned with various amounts of 3-indolepyruvic acid or the derivatives thereof, dissolved into a buffer solution, and with a system for the production of free radicals, consisting of ascorbic acid (final 10^-5 M), FeCl3 (final 10^-6 M) and H2 O2 (final 10^-4 M). It was stirred at 37° C., then the reaction was blocked.
# [5] = test system: tryptophan and kynurenic acid in the brain of rats; details: rat, in vivo
# Excerpt: as §1, §2, §3
# Male rats were treated with saline solution (controls), IPA or tryptophan i.p. one hour before sacrifice. Each lot was of six animals.
# The reported values are in picomoles/g for kynurenic acid and picomoles/mg for tryptophan.
# Brain homogenate = test: Test 2: transformation into kynurenic acid in tissue homogenates (brain); format: in vitro ADME, rats; details: for Amount of kynurenic acid formed: brain homogenate, 1.6 mg
# Method: as §4, §5
# kynurenic acid [6] = test: Test 3: effect on the content of kynurenic acid after administration of IPA in rat; format: in vivo
# Excerpt: as §1, §2, §3
# Male rats were treated with saline solution (controls) or with various doses of IPA, which was injected 3 hours before sacrifice. Each lot comprised 10 animals.
# The results are reported in picomoles/g of tissue (or ml of blood)±standard error.
# Water solubility = format: physicochemical
# [7] = 1 g/Kg i.p. one hour before NMDA 154 mg/Kg i.p., number/total
# [8] = 100 mg/Kg i.p., 3 hours, ± standard error
# [9] = 250 mg.Kg i.p., 3 hours, ± standard error
# [10] = 500 mg.Kg i.p., 3 hours, ± standard error
smiles,measurement,setting,value
O=C(O)C(=O)Cc1c[nH]c2ccccc12 [3-indolepyruvic acid],Deaths,NMDA induced convulsions; [7],3/9
same,Tonic convulsions,NMDA induced convulsions; [7],5/9
same,protection against convulsions and death induced by NMDA (in words),"NMDA induced convulsions; mouse, in vivo",able to protect mice against both convulsions and death induced by NMDA
same,"Animals with convulsions, %",[1]; 200 mg/Kg intravenously,33%
same,Animals with convulsions,[1]; 200 mg/Kg intravenously,4/12
same,protective action against tonic convulsions induced by sound stimulations (in words),[1]; DBA2 mice,good protective action
same,kynurenic acid obtained,[2]; after 2 hours,"0,5 micrograms"
same,kynurenic acid obtained,[2]; after 4 hours,"0,7 micrograms"
same,kynurenic acid levels over time in the organs (in words),kynurenic acid [3],high increase of kynurenic acid in all the organs under test (maximum in kidney). The levels remain high even after 4 hours from administration
same,"kynurenic acid level, Brain",kynurenic acid [3]; 1 hour,39 ± 4 picomoles/g
same,"kynurenic acid level, Heart",kynurenic acid [3]; 1 hour,181 ± 18 picomoles/g
same,"kynurenic acid level, Kidney",kynurenic acid [3]; 1 hour,2593 ± 250 picomoles/g
same,"kynurenic acid level, Liver",kynurenic acid [3]; 1 hour,827 ± 50 picomoles/g
same,"kynurenic acid level, Brain",kynurenic acid [3]; 2 hours,32 ± 3 picomoles/g
same,"kynurenic acid level, Heart",kynurenic acid [3]; 2 hours,177 ± 20 picomoles/g
same,"kynurenic acid level, Kidney",kynurenic acid [3]; 2 hours,2395 ± 200 picomoles/g
same,"kynurenic acid level, Liver",kynurenic acid [3]; 2 hours,464 ± 40 picomoles/g
same,"kynurenic acid level, Brain",kynurenic acid [3]; 3 hours,38 ± 4 picomoles/g
same,"kynurenic acid level, Heart",kynurenic acid [3]; 3 hours,104 ± 12 picomoles/g
same,"kynurenic acid level, Kidney",kynurenic acid [3]; 3 hours,1480 ± 150 picomoles/g
same,"kynurenic acid level, Liver",kynurenic acid [3]; 3 hours,235 ± 5 picomoles/g
same,"kynurenic acid level, Brain",kynurenic acid [3]; 4 hours,28 ± 3 picomoles/g
same,"kynurenic acid level, Heart",kynurenic acid [3]; 4 hours,100 ± 11 picomoles/g
same,"kynurenic acid level, Kidney",kynurenic acid [3]; 4 hours,1200 ± 150 picomoles/g
same,"kynurenic acid level, Liver",kynurenic acid [3]; 4 hours,122 ± 10 picomoles/g
same,"kynurenic acid content, Blood",kynurenic acid [4]; 100 mg/Kg per os,87 ± 8 picomoles/ml of blood
same,"kynurenic acid content, Brain",kynurenic acid [4]; 100 mg/Kg per os,28 ± 2 picomoles/g of tissue
same,"kynurenic acid content, Liver",kynurenic acid [4]; 100 mg/Kg per os,275 ± 25 picomoles/g of tissue
same,"kynurenic acid content, Liver",kynurenic acid [4]; 250 mg.Kg i.p.,547 ± 35 picomoles/g of tissue
same,"kynurenic acid content, Blood",kynurenic acid [4]; 250 mg/Kg per os,120 ± 12 picomoles/ml of blood
same,"kynurenic acid content, Brain",kynurenic acid [4]; 250 mg/Kg per os,38 ± 3 picomoles/g of tissue
same,"kynurenic acid content, Liver",kynurenic acid [4]; 250 mg/Kg per os,485 ± 40 picomoles/g of tissue
same,"kynurenic acid content, Liver",kynurenic acid [4]; 500 mg.Kg i.p.,2860 ± 300 picomoles/g of tissue
same,stability (in words),Stability,highly instable
same,Amount of kynurenic acid formed,"Kidney homogenate; final 0.8 mg, 30'",160 ng
same,Amount of kynurenic acid formed,"Kidney homogenate; final 0.8 mg, 60'",190 ng
same,Amount of kynurenic acid formed,"Kidney homogenate; final 0.8 mg, 120'",208 ng
same,Amount of kynurenic acid formed,"Kidney homogenate; final 1.6 mg, 30'",232 ng
same,Amount of kynurenic acid formed,"Kidney homogenate; final 1.6 mg, 60'",280 ng
same,Amount of kynurenic acid formed,"Kidney homogenate; final 1.6 mg, 120'",315 ng
same,Amount of kynurenic acid formed,"Kidney homogenate; final 4 mg, 30'",185 ng
same,Amount of kynurenic acid formed,"Kidney homogenate; final 4 mg, 60'",221 ng
same,Amount of kynurenic acid formed,"Kidney homogenate; final 4 mg, 120'",270 ng
same,precursor of cerebral kynurenic acid (in words),[5],selective precursor of cerebral kynurenic acid
same,KYN/TRP × 10^3,"[5]; ip, 250 mg/kg",0.40
same,transformation into kynurenic acid in brain homogenate (in words),Brain homogenate,able to transform into kynurenic acid in the brain
same,Amount of kynurenic acid formed,Brain homogenate; 30',165 ng
same,Amount of kynurenic acid formed,Brain homogenate; 60',280 ng
same,Amount of kynurenic acid formed,Brain homogenate; 120',380 ng
same,"kynurenic acid content, Blood",kynurenic acid [6]; [8],62 ± 3 picomoles/ml of blood
same,"kynurenic acid content, Brain",kynurenic acid [6]; [8],24 ± 1 picomoles/g of tissue
same,"kynurenic acid content, Liver",kynurenic acid [6]; [8],240 ± 20 picomoles/g of tissue
same,"kynurenic acid content, Blood",kynurenic acid [6]; [9],164 ± 10 picomoles/ml of blood
same,"kynurenic acid content, Brain",kynurenic acid [6]; [9],32 ± 3 picomoles/g of tissue
same,"kynurenic acid content, Blood",kynurenic acid [6]; [10],442 ± 20 picomoles/ml of blood
same,"kynurenic acid content, Brain",kynurenic acid [6]; [10],110 ± 10 picomoles/g of tissue
same,"kynurenic acid in brain, times higher than the controls",kynurenic acid [6]; 500 mg/Kg,six
same,increase in the levels of kynurenic acid in the tissues (in words),"kynurenic acid [6]; rat, in vivo",dose-dependent
"O=C(O)C(=O)Cc1c[nH]c2ccccc12 [Mg^++ IPA salt, Mg salt of 3-indolepyruvic acid]","Animals with convulsions, %","[1]; intravenously, dose not given",29%
same,Animals with convulsions,"[1]; intravenously, dose not given",4/14
same,solubility in water (in words),Water solubility,water soluble
